Like-named read-outs stand apart in the source and are kept apart here.
Experiments:
HMLER cells [1] = assay: Monolayer cytotoxicity (MTT assay), HMLER cells; assay type: cell-based, human
Text: (§1) Cell Lines and Cell Culture Conditions. The human mammary epithelial HMLER and HMLER-shEcad cell lines were kindly donated by Prof. R. A. Weinberg (Whitehead Institute, MIT). The human epithelial breast MCF10A, breast adenocarcinoma MDA-MB-231 and MDA-MB-468, murine epithelial breast 4T1, and embryonic kidney HEK 293 cell lines were acquired from American Type Culture Collection (ATCC, Manassas, VA, USA).
(§2) HMLER, HMLER-shEcad, and MCF10A cells were maintained in Mammary Epithelial Cell Growth Medium (MEGM) with supplements and growth factors (BPE, hydrocortisone, hEGF, insulin, and gentamicin/amphotericin-B). MDA-MB-231, MDA-MB-468, 4T1, and HEK 293 cells were maintained in Dulbecco's Modified Eagle's Medium (DMEM) supplemented with fetal bovine serum (10 %) and penicillin/streptomycin (1 %). The cells were grown at 310 K in a humidified atmosphere containing 5% CO2.
(§3) Monolayer Cytotoxicity Studies. Exponentially growing cells were seeded at a density of approximately 5 × 10^3 cells per well in 96-well flat-bottomed microplates and allowed to attach for 24 h prior to addition of compounds. Various concentrations of the test compounds (0.0004-100 μM) were added and incubated for 72 h at 37 °C (total volume 200 μl). Stock solutions of the compounds were prepared as 10 mM DMSO solutions and diluted using cell […]
(§4) media. The final concentration of DMSO in each well was ≤1 %. After 72 h, 20 μl of MTT (4 mg mL-1 in PBS) was added to each well and the plates incubated for an additional 4 h at 37 °C. The media/MTT mixture was eliminated and DMSO (100 μl per well) was added to dissolve the formazan precipitates. The optical density was measured at 550 nm using a 96-well multiscanner autoreader. Absorbance values were normalised to (DMSO-containing) control wells and plotted as concentration of test compound versus % cell viability. IC50 values were interpolated from the resulting dose dependent curves. The reported IC50 values are the average of three independent experiments (n = 18). […]
(§5) After incubation for 16 […]
(§6) h, the fluorescence of the solutions was read at 590 nm (λex = 560 nm). Viable mammospheres reduce the amount of the oxidised TOX8 form (blue) and concurrently increase the amount of the fluorescent TOX8 intermediate (red), indicating the degree of mammosphere cytotoxicity caused by the test compound. […]
(§7) Cellular Uptake. To measure the cellular uptake of 1-3 about 1 million HMLER-shEcad cells were treated with 1-3 (0.25 μM) at 37 °C for 24 h. After incubation, the media was removed, the cells were washed with PBS (2 mL × 3) and harvested. The number of cells was counted at this stage, using a haemocytometer. This mitigates any cell death induced by 1-3 at the administered concentration and experimental cell loss. The cellular pellets were dissolved in 65% HNO3 (250 µL) overnight. A cellular pellet of HMLER-shEcad cells treated with 1 was also used to determine the gold content in the nuclear, cytoplasmic and membrane fractions. The Thermo Scientific NE-PER Nuclear and Cytoplasmic Extraction Kit was used to extract and separate the nuclear, cytoplasmic and membrane fractions. The fractions were dissolved in 65% HNO3 (250 µL final volume) overnight. All samples were diluted 17-fold with water and analysed using inductively coupled plasma mass spectrometry (ICP-MS, Thermo Scientific ICAP-Qc quadrupole ICP mass spectrometer). Gold levels are expressed as mass of Au (ng) per million cells. Results are presented as the mean of four determinations for each data point.
(§8) Intracellular ROS Assay. […]

HMLER-shEcad cells [2] = assay: Monolayer cytotoxicity (MTT assay), HMLER-shEcad cells; assay type: cell-based, human
Text: as §1, §2, §3, §4, §5, §6, §7, §8

[3] = system: HMLER-shEcad mammospheres; assay: Mammosphere viability assay (TOX8); assay type: cell-based, human; settings: 5 days incubation
Method: Tumorsphere Formation and Viability Assay.
in ultralow-attachment 96-well plates (Corning) and incubated in MEGM supplemented with B27 (Invitrogen), 20 ng mL-1 EGF and 4 μg mL-1 heparin (Sigma) for 5 days. […] The viability of the mammospheres was determined by addition of a resazurin-based reagent, TOX8 (Sigma). After incubation for 16 h, the fluorescence of the solutions was read at 590 nm (λex = 560 nm). Viable mammospheres reduce the amount of the oxidised TOX8 form (blue) and concurrently increase the amount of the fluorescent TOX8 intermediate (red), indicating the degree of mammosphere cytotoxicity caused by the test compound. Fluorescence values were normalised to DMSO-containing controls and plotted as concentration of test compound versus % mammospheres viability. IC50 values were interpolated from the resulting dose dependent curves. The reported IC50 values are the average of three independent experiments, each consisting of two replicates per concentration level (overall n = 6).

MDA-MB-231 cells = assay: Monolayer cytotoxicity (MTT assay), MDA-MB-231 cells; assay type: cell-based, human; settings: 72 h incubation
Text: as §1, §2, §3
(§9) media. The final concentration of DMSO in each well was ≤1 %. […] The optical density was measured at 550 nm using a 96-well multiscanner autoreader. Absorbance values were normalised to (DMSO-containing) control wells and plotted as concentration of test compound versus % cell viability. […]
(§10) h, the fluorescence of the solutions was read at 590 nm (λex = 560 nm). […]
(§11) Cellular Uptake. […] The number of cells was counted at this stage, using a haemocytometer. […] All samples were diluted 17-fold with water and analysed using inductively coupled plasma mass spectrometry (ICP-MS, Thermo Scientific ICAP-Qc quadrupole ICP mass spectrometer). Gold levels are expressed as mass of Au (ng) per million cells. […]

MDA-MB-468 cells = assay: Monolayer cytotoxicity (MTT assay), MDA-MB-468 cells; assay type: cell-based, human; settings: 72 h incubation
Text: as §1, §2, §3, §4
Cellular Uptake. […]

4T1 cells = assay: Monolayer cytotoxicity (MTT assay), 4T1 cells; assay type: cell-based, murine; settings: 72 h incubation
Text: as §1, §2, §3, §9, §10, §11

[4] = Water-octanol partition coefficient (shake-flask, UV-vis); assay type: physicochemical; settings: room temperature 24 h
Method: Measurement of water-octanol partition coefficient (LogP). The LogP values for 1-8 were determined using the shake-flask method and UV-vis spectroscopy. The 1-octanol used in this experiment was pre-saturated with water. An aqueous solution of 1-8 (500 μL, 100 μM) was incubated with 1-octanol (500 μL) in a 1.5 mL tube. The tube was shaken at room temperature for 24 h. The two phases were separated by centrifugation and the 1-8 content in each phase was determined by UV-vis spectroscopy. […]

HMLER cells [5] = system: HMLER cells; design: method as in PMID 26806362, PMID 31209956, PMID 28932846; settings: cited from earlier work
HMLER-shEcad cells [6] = system: HMLER-shEcad cells; design: method as in PMID 26806362, PMID 31209956, PMID 28932846; settings: cited from earlier work
[7] = system: HMLER-shEcad mammospheres; design: method as in PMID 26806362, PMID 31209956, PMID 28932846; settings: read-out: Mammosphere IC50; cited from earlier work
COX-2 [8] = molecular target: T1, COX-2 (Ovis aries, UniProt P79208); assay: COX-2 inhibition enzyme immunoassay (EIA); assay type: biochemical, ovine; settings: COX-2-catalysed conversion of arachidonic acid to prostaglandin, tested 1-250 μM
T1 construct: purchased Cayman Chemicals
T1 sequence (P79208 17-603): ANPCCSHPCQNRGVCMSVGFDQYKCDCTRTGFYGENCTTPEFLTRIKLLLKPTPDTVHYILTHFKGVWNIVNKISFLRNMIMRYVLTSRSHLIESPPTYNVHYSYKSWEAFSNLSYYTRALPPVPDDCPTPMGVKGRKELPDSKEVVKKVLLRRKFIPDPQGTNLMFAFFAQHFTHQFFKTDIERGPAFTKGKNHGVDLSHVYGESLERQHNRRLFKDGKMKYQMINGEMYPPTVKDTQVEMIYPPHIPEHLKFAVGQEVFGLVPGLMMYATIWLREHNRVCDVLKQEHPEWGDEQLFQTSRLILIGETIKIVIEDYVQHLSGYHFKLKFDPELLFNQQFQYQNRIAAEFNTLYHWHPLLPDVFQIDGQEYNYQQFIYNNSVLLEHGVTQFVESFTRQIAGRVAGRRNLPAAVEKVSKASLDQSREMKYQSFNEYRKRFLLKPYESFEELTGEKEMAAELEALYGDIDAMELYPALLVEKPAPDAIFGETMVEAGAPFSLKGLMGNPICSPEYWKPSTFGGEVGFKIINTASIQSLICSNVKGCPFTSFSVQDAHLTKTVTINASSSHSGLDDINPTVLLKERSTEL
Method: ice-cold methanol (for 30 min), and suspended in PBS (200 μL). […]
COX-2 Inhibition Enzyme Immunoassay (EIA). The COX-2 inhibitory properties of 1,
indomethacin, and ch loro(triphenylphosphine)gold(I) was determined using the “COX
(ovine) Inhibitor Screening Assay (Cayman Chemicals).” The assay was performed
according to the manuf acturer’s instructions using a 96-well plate set up.

COX-2 [9] = assay: COX-2 expression assay (flow cytometry); assay type: cell-based, human; settings: LPS 2.5 μM 24 h pre-treatment; 1 at IC50 value or indomethacin 20 μM, 48 h
Method: COX-2 Expression Assay. HMLER-shEcad cells were seeded in 6-well plates (at a density […]
indomethacin (20 μM) and incubated for a further 48 h. The cells were then harvested by trypsinisation, fixed with 4% paraformaldehyde (at 37 °C for 10 min), permeabilised with ice-cold methanol (for 30 min), and suspended in PBS (200 μL). […]
labelled anti-COX-2 antibody (5 μL) was then added to the cell suspension and incubated in the dark for 1 h. The cells were then washed with PBS (1 mL) and analysed using a FACSCanto II flow cytometer (BD Biosciences) (10,000 events per sample were acquired) at the University of Leicester FACS Facility. The FL1 channel was used to assess COX-2 expression. Cell populations were analysed using the FlowJo software (Tree Star).
COX-2 Inhibition Enzyme Immunoassay (EIA). […]
(ovine) Inhibitor Screening Assay (Cayman Chemicals).” The assay was performed according to the manuf acturer’s instructions using a 96-well plate set up.

[10] = Homo sapiens, within concentration range tested

SMILES: O=C([O][Au][PH](c1ccccc1)(c1ccccc1)c1ccccc1)c1cc(-c2ccc(F)cc2F)ccc1O [complex 2]
- IC50 (HMLER cells [1]; 72 h incubation, MTT): 0.221 ± 0.003 µM
- IC50 (HMLER-shEcad cells [2]; 72 h incubation, MTT): 0.138 ± 0.007 µM
- IC50 [3]: 8 ± 1 µM
- IC50 (MDA-MB-231 cells): 5.79 ± 0.79 µM
- IC50 (MDA-MB-468 cells): 7.12 ± 0.1 µM
- IC50 (4T1 cells): 7.25 ± 0.4 µM
- LogP value [4]: 1.54 ± 0.44

SMILES: O=c1[nH]cc(F)c(=O)[nH]1 [5-Fluorouracil, 5-fluorouracil, reference compound]
- IC50 ([3]; Homo sapiens, 120 h): 15 ± 1 µM

SMILES: CC(C)Cc1ccc(C(C)C(=O)[O][Au][PH](c2ccccc2)(c2ccccc2)c2ccccc2)cc1 (centres unmarked) [complex 8]
- LogP value [4]: 1.19 ± 0.01

SMILES: N.N.[Cl][Pt][Cl] [Cisplatin, cisplatin]
- IC50 (HMLER cells [5]): 2.565 ± 0.021 µM
- IC50 (HMLER-shEcad cells [6]): 5.65 ± 0.304 µM
- IC50 [7]: 14 ± 2 µM

SMILES: [Cl][Au].c1ccc(P(c2ccccc2)c2ccccc2)cc1 [chloro(triphenylphosphine)gold(I)]
- IC50 (HMLER cells [1]; 72 h incubation, MTT): 0.207 ± 0.005 µM
- IC50 (HMLER-shEcad cells [2]; 72 h incubation, MTT): 0.216 ± 0.003 µM
- fold less toxic towards HMLER and HMLER-shEcad cells than 1 (HMLER-shEcad cells [2]; compared with 1): up to 3.8 fold
- IC50 (COX-2 [8]): > 250 µM

SMILES: COc1ccc2c(c1)c(CC(=O)O)c(C)n2C(=O)c1ccc(Cl)cc1 [indomethacin]
- IC50 (HMLER cells [1]; [10]): > 100 µM
- IC50 (HMLER-shEcad cells [2]; [10]): > 100 µM
- COX-2 expression (COX-2 [9]): decreased

SMILES: CC(=O)OC[C@H]1O[C@@H]([S-])[C@H](OC(C)=O)[C@@H](OC(C)=O)[C@@H]1OC(C)=O.CCP(CC)CC.[Au+] [auranofin]
- fold more potent towards HMLER cells than HMLER-shEcad cells (HMLER cells [1]): 2 fold
- IC50 (HMLER cells [1]; 72 h incubation, MTT): 0.013 ± 0.002 µM
- IC50 (HMLER-shEcad cells [2]; 72 h incubation, MTT): 0.026 ± 0.005 µM

SMILES: Cc1c(Cl)cccc1Nc1ccccc1C(=O)[O][Au][PH](c1ccccc1)(c1ccccc1)c1ccccc1 [complex 6]
- LogP value [4]: 1.17 ± 0.37
